Patent US10463670B2, “Use of non-peptide NK1 antagonists in a predetermined dose for the treatment of cancer” (SERVICIO ANDALUZ DE SALUD, priority 2013, dated 2019)

What was measured:
[1] = tested on: human glioma; reference GAMG; experiment: Glioma GAMG tumours implanted s.c. in nude mice, Aprepitant alone; assay type: in vivo
Experimental: (§1) Immunocompromised female mice, 5-6 weeks of age were used, nu/nu Balb/c nude mice, provided by Harlan Iberica Barcelona (Spain). They were kept at 24° C. and in sterile conditions with food and water “ad libitum”. They were injected with 2×10^7 tumour cells, corresponding to cancer (human lung cancer, reference HCC-44 supplied by DSMZ) in 200 μl of PBS subcutaneous route. The tumour size was measured and the mice were evaluated for their state of health and weight daily. The mice were randomized in nine groups when the tumours reached a volume of 75 mm^3. One of the groups was treated with 200 μl of placebo (control group) and the eight remaining groups with doses of 10 (group 1), 20 (group 2), 30 (group 3), 40 (group 4), 50 (group 5), 60 (group 6), 70 (group 7) and 80 (group 8) mg per kilogram of weight and day of the NK1 receptor antagonist Aprepitant. 3 animals were treated per group, during 28 days. All the mice were sacrificed at the end of the experiment.
Immunocompromised female mice, 5-6 weeks of age were used, in the same conditions as explained in example 1. They were injected with 2×10^7 tumour cells, corresponding to a glial cell line tumour of the central nervous system human (human glioma; reference GAMG; supplied by DSMZ) in 200 μl of PBS by subcutaneous route. The tumour size was measured and the mice were evaluated for their state of health and weight daily. The mice were randomized in nine groups when the tumours reached a volume of 75 mm^3. One of the groups was treated with 200 μl of placebo (control group) and the eight remaining groups with doses of 10 (group 1), 20 (group 2), 30 (group 3), 40 (group 4), 50 (group 5), 60 (group 6), 70 (group 7) and 80 (group 8) mg per kilogram of weight and day of the NK1 receptor antagonist Aprepitant. 3 animals were treated per group, during 28 days. All the mice were sacrificed at the end of the experiment.

[2] = tested on: Human B cell lymphoma BC-1; experiment: MTS cell proliferation, nanomolar antagonist, BC-1; assay type: cell-based; details: Aprepitant 1, 5 and 7 nM, vs cells grown in the absence of antagonist, time dependant
Experimental: (§2) Cell cultures of various commercial tumour cell lines stated in table 13 were used. [table] […] The number of cells was quantified using a Coulter counter. […] The culture plates were grown in the presence of increasing concentrations of non-peptide NK1 receptor antagonists. To obtain the staining in the proliferation assays, 20 μl of MTS were added to each one of the wells of the cell culture plates 90 minutes before reading the samples in a multiscan spectrophotometer (TECAN Spectra classic, Barcelona, Spain) at 492 nm (assay wavelength) and 690 nm (reference wavelength). The different doses were tested in duplicate and each experiment was performed in triplicate. The antagonist Aprepitant was used at the following concentrations: 1 nanomolar -nM-, 5 nanomolar -nM- and 7 nanomolar -nM-. […] As proliferation control, the cells were grown in the absence of said antagonist. This is expressed in FIGS. 1 to 10.

[3] = tested on: Human melanoma MEL HO; experiment: MTS cell proliferation, nanomolar antagonist, MEL HO; assay type: cell-based; details: Aprepitant 1, 5 and 7 nM, vs cells grown in the absence of antagonist, time dependant
Experimental: as §2

[4] = tested on: human lung cancer, reference HCC-44; experiment: Lung cancer HCC-44 tumours implanted s.c. in nude mice, Aprepitant alone; assay type: in vivo
Experimental: as §1

[5] = Aprepitant 10 mg/kg/day, 7 days
[6] = Aprepitant 10 mg/kg/day, 14 days
[7] = Aprepitant 10 mg/kg/day, 21 days
[8] = Aprepitant 10 mg/kg/day, 28 days
[9] = Aprepitant 20 mg/kg/day, 7 days
[10] = Aprepitant 20 mg/kg/day, 14 days
[11] = Aprepitant 20 mg/kg/day, 21 days
[12] = Aprepitant 20 mg/kg/day, 28 days
[13] = Aprepitant 30 mg/kg/day, 7 days
[14] = Aprepitant 30 mg/kg/day, 14 days
[15] = Aprepitant 30 mg/kg/day, 21 days
[16] = Aprepitant 30 mg/kg/day, 28 days
[17] = Aprepitant 40 mg/kg/day, 7 days
[18] = Aprepitant 40 mg/kg/day, 14 days
[19] = Aprepitant 40 mg/kg/day, 21 days
[20] = Aprepitant 40 mg/kg/day, 28 days
[21] = Aprepitant 50 mg/kg/day, 7 days
[22] = Aprepitant 50 mg/kg/day, 14 days
[23] = Aprepitant 50 mg/kg/day, 21 days
[24] = Aprepitant 50 mg/kg/day, 28 days
[25] = Aprepitant 60 mg/kg/day, 7 days
[26] = Aprepitant 60 mg/kg/day, 14 days
[27] = Aprepitant 60 mg/kg/day, 21 days
[28] = Aprepitant 60 mg/kg/day, 28 days
[29] = Aprepitant 70 mg/kg/day, 7 days
[30] = Aprepitant 70 mg/kg/day, 14 days
[31] = Aprepitant 70 mg/kg/day, 21 days
[32] = Aprepitant 70 mg/kg/day, 28 days
[33] = Aprepitant 80 mg/kg/day, 7 days
[34] = Aprepitant 80 mg/kg/day, 14 days
[35] = Aprepitant 80 mg/kg/day, 21 days
[36] = Aprepitant 80 mg/kg/day, 28 days

## C[C@@H](O[C@H]1OCCN(Cc2n[nH]c(=O)[nH]2)[C@H]1c1ccc(F)cc1)c1cc(C(F)(F)F)cc(C(F)(F)F)c1 [Aprepitant]
[1]; [5]
  Tumour size (mean volume of the tumour): 205 ± 3 cubic millimeters
[1]; [6]
  Tumour size (mean volume of the tumour): 185 ± 6 cubic millimeters
[1]; [7]
  Tumour size (mean volume of the tumour): 170 ± 7 cubic millimeters
[1]; [8]
  Tumour size (mean volume of the tumour): 155 ± 4 cubic millimeters
[1]; [9]
  Tumour size (mean volume of the tumour): 190 ± 4 cubic millimeters
[1]; [10]
  Tumour size (mean volume of the tumour): 160 ± 7 cubic millimeters
[1]; [11]
  Tumour size (mean volume of the tumour): 150 ± 6 cubic millimeters
[1]; [12]
  Tumour size (mean volume of the tumour): 125 ± 5 cubic millimeters
[1]; [13]
  Tumour size (mean volume of the tumour): 160 ± 4 cubic millimeters
[1]; [14]
  Tumour size (mean volume of the tumour): 145 ± 7 cubic millimeters
[1]; [15]
  Tumour size (mean volume of the tumour): 120 ± 6 cubic millimeters
[1]; [16]
  Tumour size (mean volume of the tumour): 105 ± 4 cubic millimeters
[1]; [17]
  Tumour size (mean volume of the tumour): 155 ± 6 cubic millimeters
[1]; [18]
  Tumour size (mean volume of the tumour): 125 ± 5 cubic millimeters
[1]; [19]
  Tumour size (mean volume of the tumour): 110 ± 5 cubic millimeters
[1]; [20]
  Tumour size (mean volume of the tumour): 90 ± 9 cubic millimeters
[1]; [21]
  Tumour size (mean volume of the tumour): 125 ± 5 cubic millimeters
[1]; [22]
  Tumour size (mean volume of the tumour): 110 ± 5 cubic millimeters
[1]; [23]
  Tumour size (mean volume of the tumour): 100 ± 5 cubic millimeters
[1]; [24]
  Tumour size (mean volume of the tumour): 80 ± 8 cubic millimeters
[1]; [25]
  Tumour size (mean volume of the tumour): 95 ± 5 cubic millimeters
[1]; [26]
  Tumour size (mean volume of the tumour): 85 ± 6 cubic millimeters
[1]; [27]
  Tumour size (mean volume of the tumour): 60 ± 6 cubic millimeters
[1]; [28]
  Tumour size (mean volume of the tumour): 50 ± 7 cubic millimeters
[1]; [29]
  Tumour size (mean volume of the tumour): 75 ± 6 cubic millimeters
[1]; [30]
  Tumour size (mean volume of the tumour): 60 ± 5 cubic millimeters
[1]; [31]
  Tumour size (mean volume of the tumour): 55 ± 5 cubic millimeters
[1]; [32]
  Tumour size (mean volume of the tumour): 35 ± 8 cubic millimeters
[1]; [33]
  Tumour size (mean volume of the tumour): 60 ± 3 cubic millimeters
[1]; [34]
  Tumour size (mean volume of the tumour): 45 ± 6 cubic millimeters
[1]; [35]
  Tumour size (mean volume of the tumour): 25 ± 7 cubic millimeters
[1]; [36]
  Tumour size (mean volume of the tumour): 15 ± 10 cubic millimeters
[2]
  Proliferation of tumour cells (MTS): increase was observed of proliferation
[3]
  Proliferation of tumour cells (MTS): increase was observed of proliferation
[4]; [5]
  Tumour size (mean volume of the tumour): 210 ± 2 cubic millimeters
[4]; [6]
  Tumour size (mean volume of the tumour): 190 ± 4 cubic millimeters
[4]; [7]
  Tumour size (mean volume of the tumour): 165 ± 6 cubic millimeters
[4]; [8]
  Tumour size (mean volume of the tumour): 135 ± 3 cubic millimeters
[4]; [9]
  Tumour size (mean volume of the tumour): 205 ± 8 cubic millimeters
[4]; [10]
  Tumour size (mean volume of the tumour): 170 ± 3 cubic millimeters
[4]; [11]
  Tumour size (mean volume of the tumour): 145 ± 4 cubic millimeters
[4]; [12]
  Tumour size (mean volume of the tumour): 110 ± 4 cubic millimeters
[4]; [13]
  Tumour size (mean volume of the tumour): 185 ± 4 cubic millimeters
[4]; [14]
  Tumour size (mean volume of the tumour): 150 ± 6 cubic millimeters
[4]; [15]
  Tumour size (mean volume of the tumour): 135 ± 5 cubic millimeters
[4]; [16]
  Tumour size (mean volume of the tumour): 105 ± 2 cubic millimeters
[4]; [17]
  Tumour size (mean volume of the tumour): 155 ± 5 cubic millimeters
[4]; [18]
  Tumour size (mean volume of the tumour): 130 ± 4 cubic millimeters
[4]; [19]
  Tumour size (mean volume of the tumour): 120 ± 4 cubic millimeters
[4]; [20]
  Tumour size (mean volume of the tumour): 95 ± 4 cubic millimeters
[4]; [21]
  Tumour size (mean volume of the tumour): 130 ± 4 cubic millimeters
[4]; [22]
  Tumour size (mean volume of the tumour): 115 ± 7 cubic millimeters
[4]; [23]
  Tumour size (mean volume of the tumour): 105 ± 6 cubic millimeters
[4]; [24]
  Tumour size (mean volume of the tumour): 85 ± 6 cubic millimeters
[4]; [25]
  Tumour size (mean volume of the tumour): 110 ± 3 cubic millimeters
[4]; [26]
  Tumour size (mean volume of the tumour): 95 ± 8 cubic millimeters
[4]; [27]
  Tumour size (mean volume of the tumour): 80 ± 7 cubic millimeters
[4]; [28]
  Tumour size (mean volume of the tumour): 65 ± 4 cubic millimeters
[4]; [29]
  Tumour size (mean volume of the tumour): 95 ± 4 cubic millimeters
[4]; [30]
  Tumour size (mean volume of the tumour): 80 ± 6 cubic millimeters
[4]; [31]
  Tumour size (mean volume of the tumour): 65 ± 8 cubic millimeters
[4]; [32]
  Tumour size (mean volume of the tumour): 40 ± 7 cubic millimeters
[4]; [33]
  Tumour size (mean volume of the tumour): 70 ± 4 cubic millimeters
[4]; [34]
  Tumour size (mean volume of the tumour): 55 ± 7 cubic millimeters
[4]; [35]
  Tumour size (mean volume of the tumour): 40 ± 6 cubic millimeters
[4]; [36]
  Tumour size (mean volume of the tumour): 25 ± 5 cubic millimeters
